SMILES strings stand for the structures. Like-named read-outs stand apart in the source and are kept apart here.

In data set [1] the test system is tetrabenazine-induced behavioral effects. The experiment in a line: Antitetrabenazine activity in the mouse (prevention of tetrabenazine-induced behavioral effects). The class given is in vivo. Conditions: for ED50: Mus musculus, ip, read-out: ED50 (mg/kg i.p.), antitetrabenazine activity. The text has this: Substances having an antidepressant action antagonize a number of the behavioral effects induced by tetrabenazine including locomotor activity, ptosis and hypothermia. Tetrabenazine-induced behavioral effects can be quantified using a composite index, X, where X=(1−ptosis score)/(activity score*[Temp., treated/Temp., control]) as described by Cooper, B. R., J. L. Howard, and F. E. Soroko, Animal models used in prediction of antidepressant effects in man, Journal of Clinical Psychiatry 44:63-6, 1983). 50% effective dose (ED50) values indicate a dose of compound with ‘antitetrabenazine activity’ at which the composite index, X, induced by 20 mg/kg of tetrabenazine intraperitoneally is reduced 50%.
Prevention of tetrabenazine-induced behavioral effects were measured using a modification of the method of Vernier et al., First Hahnemann Symposium on Psychosomatic Medicine, ed. Nodim and Moyer, pub Lea and Febiger, Philadelphia 1962 as described previously (Cooper, B. R., J. L. Howard, and F. E. Soroko, Animal models used in prediction of antidepressant effects in man, Journal of Clinical Psychiatry 44:63-6, 1983). Mice, groups of 12 CD1 males each, were injected intraperitoneally (i.p.) with the compounds (1420), (20a) and furosemide (10) suspended in a 0.5% 4000-centipoise methyl cellulose solution at 3 mg/mL or vehicle. All injections were administered at a vehicle volume of 10 ml/kg. The 50% effective dose (ED50) of each compound was determined by linear regression analysis of log probit plots of dose effect curves and is reported in Table 3: […]

The test system of the next data set is Mice, CD1 males. The experiment in a line: Safety and toxicity dose-ranging study, observation for seizures and deaths after oral administration. The data set is classed as in vivo, mouse. To be noted: CD1 male mice, p.o., doses up to 300 mg/kg, observed for one hour. The procedure: Safety and Toxicity: Dose-ranging studies were performed to determine the range of safe doses for compound (1420). […] Mice, groups of 6 CD1 males each, were administered compound suspended in a 0.5% 4000-centipoise methyl cellulose vehicle at a volume of 10 mL/kg p.o. using a 22-gauge stainless steel mouse feeding tube and 1-mL syringe at doses up to 300 mg/kg.

Where [2] appears, read: CD1 male mice, i.p., dose at which composite index X induced by 20 mg/kg tetrabenazine i.p. is reduced 50%.

In the case of `C[C@@H]1CO[C@@](O)(c2cc(F)cc(F)c2)[C@H](C)N1` [20a, (2S,3S,5R)-2-(3,5-difluorophenyl)-2-hydroxy-3,5-dimethylmorpholine], the “inhibition of tetrabenazine-induced behavioral effects” value in data set [1] (CD1 male mice, i.p.) is given as “inhibited tetrabenazine-induced behavioral effects”. Further, the ED50 in data set [1] was 0.2 mg/kg.
Consider `C[C@@H]1CO[C@@](O)(c2cc(F)cc(F)c2)[C@H](C)N1C(=O)OCOC(=O)c1cc(S(N)(=O)=O)c(Cl)cc1NCc1ccco1` [compound 1420, (2S,3S,5R)-4-[5-(aminosulfonyl)-4-chloro-2-[(2-furanylmethyl)amino]benzoyloxymethoxycarbonyl]-2-(3,5-difluorophenyl)-3,5-dimethyl-2-morpholinol], for which the “inhibition of tetrabenazine-induced behavioral effects” value in data set [1] (CD1 male mice, i.p.) was “inhibited tetrabenazine-induced behavioral effects”. The ED50 in data set [1] (setting [2]) was found to be 3.6 mg/kg. Further, the “serious adverse events (seizures and deaths)” value with Mice, CD1 males is “No seizures or deaths were observed in any animals at any dose”.
With `NS(=O)(=O)c1cc(C(=O)O)c(NCc2ccco2)cc1Cl` [furosemide, 5-(aminosulfonyl)-4-chloro-2-[(2-furanylmethyl)amino]benzoic acid], the ED50 in data set [1] (setting [2]) was over 30 mg/kg.

Values taken from patent US7763612B2, “Therapeutic amine-arylsulfonamide conjugate compounds” (Algebra, Inc., priority 2006, dated 2010).
